Results as given in US8604053B2, “TRPV1 antagonists” (AbbVie Inc., priority 2008, dated 2013).
pIC50: −log10 of the molar value.

Assays:
[1] = target: T1, human TRPV1 receptor (hTRPV1) (Homo sapiens, UniProt Q8NER1); test: Capsaicin activation assay (Ca2+ influx, FLIPR); format: cell-based; conditions: hTRPV1 in 1321N1 cells, 0.05 μM capsaicin
T1 construct: expressed in transfected cells
Description: Dulbecco's modified Eagle medium (D-MEM) (with 4.5 mg/mL glucose) and fetal bovine serum were obtained from Hyclone Laboratories, Inc. (Logan, Utah). Dulbecco's phosphate-buffered saline (D-PBS) (with 1 mg/mL glucose and 3.6 mg/l Na pyruvate, without phenol red), L-glutamine, hygromycin B, and Lipofectamine® were obtained from Life Technologies (Grand Island, N.Y.). G418 sulfate was obtained from Calbiochem-Novabiochem Corp. (San Diego, Calif.). Capsaicin (8-methyl-N-vanillyl-6-nonenamide) was obtained from Sigma-Aldrich, Co. (St. Louis, Mo.). Fluo-4 AM (N-[4-[6-[(acetyloxy)methoxy]-2,7-difluoro-3-oxo-3H-xanthen-9-yl]-2-[2-[2-[bis[2-[(acetyloxy)methoxy]-2-oxyethyl]amino]-5-methyl-phenoxy[ethoxy]phenyl]-N-[2-[(acetyloxy)methoxy]-2-oxyethyl]-glycine, (acetyloxy)methyl ester) was purchased from Molecular Probes (Eugene, Oreg.).
The cDNAs for the human TRPV1 receptor (hTRPV1) were isolated by reverse transcriptase-polymerase chain reaction (RT-PCR) from human small intestine poly A+ RNA supplied by Clontech (Palo Alto, Calif.) using primers designed surrounding the initiation and termination codons identical to the published sequences (Hayes et al. Pain 2000, 88, 205-215). The resulting cDNA PCR products were subcloned into pClneo mammalian expression vector (Promega) and fully sequenced using fluorescent dye-terminator reagents (Prism, Perkin-Elmer Applied Biosystems Division) and a Perkin-Elmer Applied Biosystems Model 373 DNA sequencer or Model 310 genetic analyzer. Expression plasmids encoding the hTRPV1 cDNA were transfected individually into 1321N1 human astrocytoma cells using Lipofectamine®. Forty-eight hours after transfection, the neomycin-resistant cells were selected with growth medium containing 800 μg/mL Geneticin (Gibco BRL). Surviving individual colonies were isolated and screened for TRPV1 receptor activity. Cells expressing recombinant homomeric TRPV1 receptors were maintained at 37° C. in D-MEM containing 4 mM L-glutamine, 300 μg/mL G418 (Cal-biochem) and 10% fetal bovine serum under a humidified 5% CO2 atmosphere.
The functional activity of compounds at the TRPV1 receptor was determined with a Ca^2+ influx assay and measurement of intracellular Ca^2+ levels ([Ca^2+]i). All compounds were tested over an 11-point half-log concentration range. Compound solutions were prepared in D-PBS (4× final concentration), and diluted serially across 96-well v-bottom tissue culture plates using a Biomek 2000 robotic automation workstation (Beckman-Coulter, Inc., Fullerton, Calif.). A 0.2 μM solution of the TRPV1 agonist capsaicin was also prepared in D-PBS. The fluorescent Ca^2+ chelating dye Fluo-4 AM was used as an indicator of the relative levels of [Ca^2+]i in a 96-well format using a Fluorescence Imaging Plate Reader (FLIPR)(Molecular Devices, Sunnyvale, Calif.). Cells were grown to confluency in 96-well black-walled tissue culture plates. Then, prior to the assay, the cells were loaded with 100 μL per well of Fluo-4 AM (2 μM, in D-PBS) for 1-2 hours at 23° C. Washing of the cells was performed to remove extracellular Fluo-4 AM (2×1 mL D-PBS per well), and afterward, the cells were placed in the reading chamber of the FLIPR instrument. 50 μL of the compound solutions were added to the cells at the 10 second time mark of the experimental run. Then, after a 3-minute time delay, 50 μL of the capsaicin solution was added at the, 190 second time mark (0.05 μM final concentration)(final volume=200 μL) to challenge the TRPV1 receptor. Time length of the experimental run was 240 seconds. Fluorescence readings were made at 1 to 5 second intervals over the course of the experimental run. The peak increase in relative fluorescence units (minus baseline) was calculated from the 190 second time mark to the end of the experimental run, and expressed as a percentage of the 0.05 μM capsaicin (control) response. […]

CYP2C9 = target: T2, CYP2C9 (Homo sapiens, UniProt P11712); test: CYP2C9 inhibition assay; format: in vitro ADME; conditions: human liver microsomes, substrate Luciferin-H; for inhibition at 25 min, 2.2 µM: pH 7.4, probe Luciferin-H (100 μM final), read-out: CYP2C9 % inh @ 2.2 μM
T2 construct: human liver microsomes (BD Gentest); tissue BD Gentest; host or cells: human liver microsomes
T2 sequence (P11712 whole entry): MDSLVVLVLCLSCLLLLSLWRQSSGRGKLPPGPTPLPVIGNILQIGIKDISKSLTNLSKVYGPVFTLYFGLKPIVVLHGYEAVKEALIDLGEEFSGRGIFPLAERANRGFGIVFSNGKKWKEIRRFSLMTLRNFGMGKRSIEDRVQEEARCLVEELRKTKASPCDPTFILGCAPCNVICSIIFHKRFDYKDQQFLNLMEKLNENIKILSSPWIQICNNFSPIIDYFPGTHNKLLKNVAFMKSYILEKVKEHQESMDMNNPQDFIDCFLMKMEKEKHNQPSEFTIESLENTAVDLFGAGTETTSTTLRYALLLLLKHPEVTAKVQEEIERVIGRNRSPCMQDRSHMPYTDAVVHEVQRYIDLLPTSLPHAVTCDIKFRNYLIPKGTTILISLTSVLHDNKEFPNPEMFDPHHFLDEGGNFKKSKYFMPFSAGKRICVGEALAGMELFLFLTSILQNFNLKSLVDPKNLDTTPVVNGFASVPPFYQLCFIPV
Description: Stock solutions of test compounds were assayed in 96-well format for their ability to inhibit CYP2C9, CYP2D6, or CYP3A4 mediated metabolism of test substrates. Luciferin-H was used as the substrate for CYP2C9; 3-[2-(N,N-diethyl-N-methylammonium)ethyl]-7-methoxy-4-methylcoumarin (AMMC) was used as the substrate for CYP2D6; 7-benzyloxyquiniline (BZQ) was used as the substrate for CYP3A4. For each subtype, positive controls (sulphaphenazole in the case of CYP2C9; quinidine in the case of CYP2D6, ketoconazole in the case of CYP3A4) were used to validate assay results run in duplicate.
Pre-Incubation Mixture Preparation for CYP2C9 and CYP2D6: A pre-incubation mixture was prepared by combining 100 mM phosphate buffer (9.12 mL; pH 7.4), human liver microsomes (BD Gentest, 240 itt; final concentration: 0.4 mg/mL), and 10 mM nicotinamide adenine dinucleotide phosphate in 65.4 mM MgCl2 hexahydrate (120 μL; final concentration: 125 μM and 818 μM, respectively). To this was mixture is added a ‘regeneration’ mixture (120 μL) of 333 mM glucose-6-phosphate and 40 U/mL glucose-6-phosphate dehydrogenase in 5 mM sodium citrate (final concentration: 4 mM, 0.5 U/mL, and 0.06 mM, respectively).
Substrate Mixture Preparation for CYP2C9: To a solution of 25 mM phosphate buffer, (2.16 mL, pH 7.4) was added 5 mM Luciferin-H (Promega P450 Glo Assay V8792, 240 μL; final solution concentration 0.5 mM, final assay concentration 100 μM).
CYP2C9 Inhibiton Assay: To each well in the assay plate containing varying concentrations of test compound or control compound in DMSO (10 μL) Pre-Incubation Mixture (40 itt) was added to the wells and the assay plate was pre-incubated for 10 minutes at 37° C., with shaking or rocking. CYP2C9 Substrate Mixture (10 μL) was added to all wells and the assay plate was incubated for an additional 25 minutes at 37° C., with shaking or rocking. Final DMSO concentration was 1%. Luciferin-H detection reagent (Promega kit V8792, 50 μL) was added to all wells. The plate was then vortexed at ambient temperature for between 20 minutes and 2 hours, and the luminescence of each well was then read and recorded.

[2] = Assessment of hemodynamic profile in anesthetized rat; format: in vivo; conditions: i.v. infusion 3, 10 and 30 mg/kg/30 minutes/dose, relative to vehicle control group
Description: Male Sprague-Dawley rats were anesthetized with Inactin, instrumented, and allowed to stabilize. Following a 30 minute baseline period, test compound was infused via intravenous administration at 3, 10, and 30 mg/kg/30 minutes/dose in a low volume PEG-400 vehicle (1 mL/kg) or 20:40:40 dimethylacetamide:propylene glycol:PEG-400 vehicle (1 mL/kg). A separate group of animals received infusion of vehicle alone. Mean arterial pressure (MAP) and heart rate (HR) were observed and recorded.

T1 sequence (Q8NER1 whole entry): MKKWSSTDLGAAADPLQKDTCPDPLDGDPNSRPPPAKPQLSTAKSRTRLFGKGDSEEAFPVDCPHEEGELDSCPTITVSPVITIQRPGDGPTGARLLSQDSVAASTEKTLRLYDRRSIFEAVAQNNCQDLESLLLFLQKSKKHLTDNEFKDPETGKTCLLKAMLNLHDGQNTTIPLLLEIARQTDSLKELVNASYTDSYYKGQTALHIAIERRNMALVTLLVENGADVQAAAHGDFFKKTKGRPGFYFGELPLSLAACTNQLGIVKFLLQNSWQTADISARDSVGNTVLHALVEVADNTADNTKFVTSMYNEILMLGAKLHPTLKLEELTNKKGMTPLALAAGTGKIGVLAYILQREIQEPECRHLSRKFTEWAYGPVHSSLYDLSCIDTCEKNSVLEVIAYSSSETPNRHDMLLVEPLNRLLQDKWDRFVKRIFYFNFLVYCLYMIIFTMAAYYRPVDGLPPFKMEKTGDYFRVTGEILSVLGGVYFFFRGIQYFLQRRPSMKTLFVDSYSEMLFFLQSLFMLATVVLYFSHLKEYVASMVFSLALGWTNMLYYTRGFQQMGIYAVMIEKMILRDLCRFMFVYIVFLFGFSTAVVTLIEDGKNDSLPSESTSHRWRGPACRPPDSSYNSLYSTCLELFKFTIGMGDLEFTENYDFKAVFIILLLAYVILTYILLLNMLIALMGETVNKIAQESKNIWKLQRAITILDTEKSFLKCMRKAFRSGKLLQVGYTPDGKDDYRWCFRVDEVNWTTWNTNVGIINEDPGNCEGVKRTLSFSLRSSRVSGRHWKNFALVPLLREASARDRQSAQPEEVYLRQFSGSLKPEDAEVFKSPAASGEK

| Molecule | pIC50 [1] | inhibition at 25 min, 2.2 µM (CYP2C9) [%] | Change in MAP or HR ≧ 15% ? [2] | CYP2C9 % inh @ 2.2 μM (CYP2C9) [%] |
| --- | --- | --- | --- | --- |
| Cc1cc2c(NC(=O)N[C@@H]3C[C@](C)(CF)Oc4cc(Cl)ccc43)cccc2cn1 (single isomer, unassigned) [Example 121] | 8.05 | 15 | Yes (An observed increase or decrease of greater than 15% in MAP (mean arterial pressure) or HR (heart rate) in one or more of the animals in the test group relative to the vehicle control group is indicated as “Yes” in the table) | – |
| Cc1cc2c(NC(=O)N[C@@H]3C[C@@](C)(CF)Oc4cc(Cl)ccc43)cccc2cn1 (single isomer, unassigned) [Example 122] | 7.52 | 20 | No (an observed increase or decrease of less than or equal to 15% in MAP (mean arterial pressure) or HR (heart rate) in the test group of animals relative to the vehicle control group is indicated as “No” in the table) | – |
| Cc1cc2c(NC(=O)N[C@@H]3C[C@@](C)(C(F)F)Oc4cc(Cl)ccc43)cccc2cn1 (single isomer, unassigned) [Example 124] | 8.22 | 1.2 | No (an observed increase or decrease of less than or equal to 15% in MAP (mean arterial pressure) or HR (heart rate) in the test group of animals relative to the vehicle control group is indicated as “No” in the table) | – |
| CC1(C)C[C@@H](NC(=O)Nc2cccc3cnccc23)c2ccc(F)cc2O1 [Example 23, N-[(4R)-7-fluoro-2,2-dimethyl-3,4-dihydro-2H-chromen-4-yl]-N′-isoquinolin-5-ylurea] | 8.22 | 56 | – | – |
| CC1(C)C[C@@H](NC(=O)Nc2cccc3cnccc23)c2ccccc2O1 [Example 27, N-[(4R)-2,2-dimethyl-3,4-dihydro-2H-chromen-4-yl]-N′-isoquinolin-5-ylurea] | 7.49 | 48 | – | – |
| CC1(C)C[C@@H](NC(=O)Nc2cccc3cnccc23)c2ccc(C(F)(F)F)cc2O1 [Example 34, N-[(4R)-2,2-dimethyl-7-(trifluoromethyl)-3,4-dihydro-2H-chromen-4-yl]-N′-isoquinolin-5-ylurea] | 8.30 | 39 | – | – |
| CCCC1(CCC)C[C@@H](NC(=O)Nc2cccc3cnc(C)cc23)c2cccc(F)c2O1 [Example 68, N-[(4R)-8-fluoro-2,2-dipropyl-3,4-dihydro-2H-chromen-4-yl]-N′-(3-methylisoquinolin-5-yl)urea] | 7.80 | 13 | – | – |
| CCC1(CC)C[C@@H](NC(=O)Nc2cccc3cnc(C)cc23)c2ccc(Cl)cc2O1 [Example 69, N-[(4R)-7-chloro-2,2-diethyl-3,4-dihydro-2H-chromen-4-yl]-N′-(3-methylisoquinolin-5-yl)urea] | 8.40 | 5.3 | – | – |
| CCC1(CC)C[C@@H](NC(=O)Nc2cccc3cnc(Cl)cc23)c2cccc(F)c2O1 [Example 81, N-(3-chloroisoquinolin-5-yl)-N′-[(4R)-2,2-diethyl-8-fluoro-3,4-dihydro-2H-chromen-4-yl]urea] | 8.30 | 19 | – | – |
| Cc1cc2c(NC(=O)N[C@@H]3CC(CF)(CF)Oc4c(OC(F)(F)F)cccc43)cccc2cn1 [Example 87, N-[(4R)-2,2-bis(fluoromethyl)-8-(trifluoromethoxy)-3,4-dihydro-2H-chromen-4-yl]-N′-(3-methylisoquinolin-5-yl)urea] | 8.00 | 25 | – | – |
| Cc1cc2c(NC(=O)N[C@@H]3CC(CF)(CF)Oc4c(Cl)cccc43)cccc2cn1 [Example 91, N-[(4R)-8-chloro-2,2-bis(fluoromethyl)-3,4-dihydro-2H-chromen-4-yl]-N′-(3-methylisoquinolin-5-yl)urea] | 7.59 | 13 | – | – |
| Cc1cc2c(NC(=O)N[C@@H]3CC(C)(C)Oc4c(OC(F)(F)F)cccc43)cccc2cn1 [Example 94, N-[(4R)-2,2-dimethyl-8-(trifluoromethoxy)-3,4-dihydro-2H-chromen-4-yl]-N′-(3-methylisoquinolin-5-yl)urea] | 8.05 | 5.2 | – | – |
| Cc1cc2c(NC(=O)N[C@@H]3CC(CF)(CF)Oc4cc(Br)ccc43)cccc2cn1 [Example 102, N-[(4R)-7-bromo-2,2-bis(fluoromethyl)-3,4-dihydro-2H-chromen-4-yl]-N′-(3-methylisoquinolin-5-yl)urea] | 7.85 | 13 | – | – |
| Cc1cc2c(NC(=O)N[C@@H]3C[C@](C)(CF)Oc4c(F)cccc43)cccc2cn1 [Example 126, N-[(2R,4R)-8-fluoro-2-(fluoromethyl)-2-methyl-3,4-dihydro-2H-chromen-4-yl]-N′-(3-methylisoquinolin-5-yl)urea] | 6.70 | 0 | – | – |
| Cc1cc2c(NC(=O)N[C@@H]3C[C@@](C)(CF)Oc4c(F)cccc43)cccc2cn1 [Example 128, N-[(2S,4R)-8-fluoro-2-(fluoromethyl)-2-methyl-3,4-dihydro-2H-chromen-4-yl]-N′-(3-methylisoquinolin-5-yl)urea] | 6.52 | 9 | – | – |
| N-[(4R)-6,8-difluoro-2,2-dimethyl-3,4-dihydro-2H-chromen-4-yl]-N′-isoquinolin-5-ylurea [Example 17] | 7.49 | – | – | 50 |
| N-[(4R)-7-fluoro-2,2,8-trimethyl-3,4-dihydro-2H-chromen-4-yl]-N-(3-methylisoquinolin-5-yl)urea [Example 111] | 7.62 | – | – | 0.36 |
